Key:
[1] = Inhibition of beta lactamase KPC-2 in Enterobacter cloacae assessed as decrease in enzyme activity using nitrocefin as substrate preincubated for 10 mins followed by substrate addition measured for 10 mins by fluorescence plate reader analysis
Cytochrome P450 1A2 = target: T1, Cytochrome P450 1A2 (Homo sapiens, UniProt P05177); test: Inhibition of CYP1A2 in human liver microsomes in presence of NADPH by LC-MS/MS analysis; format: ADME
T1 sequence (P05177 whole entry): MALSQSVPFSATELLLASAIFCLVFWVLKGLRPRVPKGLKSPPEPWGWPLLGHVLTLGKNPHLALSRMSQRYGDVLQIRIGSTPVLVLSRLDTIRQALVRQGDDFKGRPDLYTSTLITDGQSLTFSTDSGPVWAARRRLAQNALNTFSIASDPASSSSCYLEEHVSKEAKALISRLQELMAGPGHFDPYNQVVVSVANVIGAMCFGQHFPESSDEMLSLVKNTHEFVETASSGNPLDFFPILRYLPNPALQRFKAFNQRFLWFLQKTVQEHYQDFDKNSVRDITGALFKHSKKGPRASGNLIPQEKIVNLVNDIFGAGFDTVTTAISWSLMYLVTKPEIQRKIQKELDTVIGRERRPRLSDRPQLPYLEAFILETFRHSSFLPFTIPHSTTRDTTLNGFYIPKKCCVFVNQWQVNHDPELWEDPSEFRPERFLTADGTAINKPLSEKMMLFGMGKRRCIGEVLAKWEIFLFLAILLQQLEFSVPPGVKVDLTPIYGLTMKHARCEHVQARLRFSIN

[2] = Half life in rat at 1 mg/kg, iv; format: ADME, organism-based; conditions: in vivo
Klebsiella pneumoniae [3] = test: Antibacterial activity against Klebsiella pneumoniae expressing TEM-OSBL/CTX-M-14/OXA-48 by broth microdilution method; format: functional
Acinetobacter baumannii [4] = test: Inhibition of beta lactamase OXA in carbapenem-resistant Acinetobacter baumannii assessed as meropenem maximum concentration required for antibacterial activity at 4 ug/ml by broth microdilution method (Rvb > 32 ug/ml); conditions: dose 4.0 µg/ml
[5] = Inhibition of beta lactamase AmpC in Enterobacter cloacae assessed as decrease in enzyme activity using nitrocefin as substrate preincubated for 10 mins followed by substrate addition measured for 10 mins by fluorescence plate reader analysis
Klebsiella pneumoniae [6] = test: Potentiation of meropenem-induced antibacterial activity against Klebsiella pneumoniae expressing TEM-1/SHV-11/KPC-3 assessed as meropenem MIC at 4 ug/ml by broth microdilution method (reference value: 128 ug/ml); format: functional; conditions: dose 4 µg/ml
Enterobacter [7] = test: Inhibition of beta lactamase KPC in carbapenem-resistant Enterobacter assessed as meropenem-induced antibacterial activity by measuring meropenem MIC90 at 4 ug/ml by broth microdilution method (Rvb >32 ug/ml); conditions: dose 4.0 µg/ml
[8] = Intrinsic clearance in dog hepatocytes assessed per million cells; format: ADME, cell-based, Canis lupus familiaris, Hepatocyte; conditions: read-out: CLH
Enterobacter [9] = test: Inhibition of beta lactamase KPC in carbapenem-resistant Enterobacter assessed as meropenem-induced antibacterial activity by measuring meropenem MIC50 at 4 ug/ml by broth microdilution method (Rvb >32 ug/ml); conditions: dose 4.0 µg/ml
[10] = Stability in rat plasma assessed as parent compound remaining after 1 hr; format: ADME, cell-free; conditions: read-out: Stabilty
Acinetobacter baumannii [11] = test: Potentiation of meropenem-induced antibacterial activity against Acinetobacter baumannii expressing OXA-23 assessed as meropenem MIC at 4 ug/ml by broth microdilution method (reference value: 32 ug/ml); format: functional; conditions: dose 4 µg/ml
Klebsiella pneumoniae [12] = test: Potentiation of meropenem-induced antibacterial activity against Klebsiella pneumoniae expressing TEM-OSBL/CTX-M-14/OXA-48 assessed as meropenem MIC at 4 ug/ml by broth microdilution method (reference value: 16 ug/ml); format: functional; conditions: dose 4 µg/ml
[13] = Plasma protein binding in human assessed as fraction unbound by LC-MS/MS analysis; format: ADME, cell-free
Acinetobacter baumannii [14] = test: Inhibition of beta lactamase OXA in carbapenem-resistant Acinetobacter baumannii assessed as meropenem-induced antibacterial activity by measuring meropenem MIC90 at 4 ug/ml by broth microdilution method (Rvb > 32 ug/ml); conditions: dose 4.0 µg/ml
[15] = AUC in rat at 1 mg/kg, iv; format: ADME, organism-based; parameters: dose 1 mg/kg; conditions: in vivo
[16] = Toxicity in iv dosed rat administered as single dose; format: organism-based; conditions: in vivo
Klebsiella pneumoniae [17] = test: Antibacterial activity against Klebsiella pneumoniae expressing TEM-1/SHV-11/KPC-3 by broth microdilution method; format: functional
[18] = Stability in human plasma assessed as parent compound remaining after 1 hr; format: ADME, cell-free; conditions: read-out: Stabilty
[19] = Volume of distribution in rat at 1 mg/kg, iv; format: ADME, organism-based; conditions: in vivo
Enterobacter [20] = test: Inhibition of beta lactamase OXA in carbapenem-resistant Enterobacter assessed as meropenem minimum concentration required for antibacterial activity at 4 ug/ml by broth microdilution method (reference value: 2 ug/ml); conditions: dose 4.0 µg/ml
[21] = Inhibition of beta lactamase CTXM-15 in Enterobacter cloacae assessed as decrease in enzyme activity using nitrocefin as substrate preincubated for 10 mins followed by substrate addition measured for 10 mins by fluorescence plate reader analysis
[22] = Inhibition of beta lactamase TEM-1 in Enterobacter cloacae assessed as decrease in enzyme activity using nitrocefin as substrate preincubated for 10 mins followed by substrate addition measured for 10 mins by fluorescence plate reader analysis
[23] = Plasma protein binding in dog assessed as fraction unbound by LC-MS/MS analysis; format: ADME, cell-free, Canis lupus familiaris
Acinetobacter baumannii [24] = test: Inhibition of beta lactamase OXA in carbapenem-resistant Acinetobacter baumannii assessed as meropenem-induced antibacterial activity by measuring meropenem MIC50 at 4 ug/ml by broth microdilution method (Rvb > 32 ug/ml); conditions: dose 4.0 µg/ml
Acinetobacter baumannii [25] = test: Antibacterial activity against Acinetobacter baumannii expressing OXA-23 by broth microdilution method; format: functional
Klebsiella pneumoniae [26] = test: Potentiation of meropenem-induced antibacterial activity against Klebsiella Pneumoniae ACC-00783 expressing OXA-48 infected in CD-1 mouse assessed as reduction in bacterial burden co administered with 300 mg/kg, iv meropenem; format: functional, organism-based; conditions: dose mg/kg 25-100
Enterobacter [27] = test: Inhibition of beta lactamase KPC in carbapenem-resistant Enterobacter assessed as meropenem maximum concentration required for antibacterial activity at 4 ug/ml by broth microdilution method (Rvb >32 ug/ml); conditions: dose 4.0 µg/ml
[28] = Plasma protein binding in rat assessed as fraction unbound by LC-MS/MS analysis; format: ADME, cell-free
Klebsiella pneumoniae [29] = test: Potentiation of meropenem-induced antibacterial activity against Klebsiella pneumoniae expressing SHV-11/OXA-121 assessed as meropenem MIC at 4 ug/ml by broth microdilution method (reference value: 16 ug/ml); format: functional; conditions: dose 4 µg/ml
Cytochrome P450 3A4 = Cytochrome P450 3A4 (Homo sapiens, UniProt P08684); test: Inhibition of CYP3A4 in human liver microsomes in presence of NADPH by LC-MS/MS analysis; format: ADME
Enterobacter cloacae = test: Antibacterial activity against Enterobacter cloacae expressing TEM-1/KPC-2 by broth microdilution method; format: functional
Cytochrome P450 2C9 = Cytochrome P450 2C9 (Homo sapiens, UniProt P11712); test: Inhibition of CYP2C9 in human liver microsomes in presence of NADPH by LC-MS/MS analysis; format: ADME
[30] = Inhibition of bacteria beta lactamase OXA-23 assessed as decrease in enzyme activity using nitrocefin as substrate preincubated for 10 mins followed by substrate addition measured for 10 mins by fluorescence plate reader analysis

Sequence of Cytochrome P450 3A4 (P08684 whole entry): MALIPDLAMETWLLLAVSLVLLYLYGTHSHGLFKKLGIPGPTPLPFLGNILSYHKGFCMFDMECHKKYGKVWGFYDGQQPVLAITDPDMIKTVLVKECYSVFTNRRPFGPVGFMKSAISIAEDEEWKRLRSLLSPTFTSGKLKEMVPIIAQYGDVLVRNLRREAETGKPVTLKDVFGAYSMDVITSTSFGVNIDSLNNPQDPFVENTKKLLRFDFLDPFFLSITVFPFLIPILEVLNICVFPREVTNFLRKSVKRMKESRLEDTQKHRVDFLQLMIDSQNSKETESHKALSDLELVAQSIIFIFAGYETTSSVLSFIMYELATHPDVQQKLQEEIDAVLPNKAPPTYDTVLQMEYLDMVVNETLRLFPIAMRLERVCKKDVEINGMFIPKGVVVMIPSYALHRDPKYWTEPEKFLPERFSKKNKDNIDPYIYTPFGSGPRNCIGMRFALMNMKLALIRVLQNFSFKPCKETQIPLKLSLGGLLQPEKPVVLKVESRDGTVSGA
Sequence of Cytochrome P450 2C9 (P11712 whole entry): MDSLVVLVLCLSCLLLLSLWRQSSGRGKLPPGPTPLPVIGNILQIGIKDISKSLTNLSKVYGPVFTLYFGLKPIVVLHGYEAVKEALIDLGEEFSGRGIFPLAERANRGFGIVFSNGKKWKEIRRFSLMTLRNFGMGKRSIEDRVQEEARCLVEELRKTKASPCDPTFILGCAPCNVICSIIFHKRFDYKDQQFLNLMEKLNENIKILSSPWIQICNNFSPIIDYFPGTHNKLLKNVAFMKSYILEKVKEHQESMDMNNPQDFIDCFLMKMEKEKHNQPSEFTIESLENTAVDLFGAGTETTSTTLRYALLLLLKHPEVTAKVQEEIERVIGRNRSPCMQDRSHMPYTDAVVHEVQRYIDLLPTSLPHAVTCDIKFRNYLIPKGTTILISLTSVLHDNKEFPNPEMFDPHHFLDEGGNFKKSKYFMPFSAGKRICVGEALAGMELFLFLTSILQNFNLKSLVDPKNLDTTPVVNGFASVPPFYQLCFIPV

Compound: O=C1N2C[C@@H](CC[C@H]2F)N1OS(=O)(=O)[O-].[Na+]
- IC50 [1]: 19 nM
- IC50 (Cytochrome P450 1A2): > 50000 nM
- half-life [2]: 38.4 min
- MIC (Klebsiella pneumoniae [3]): 64 µg/mL
- Activity (Acinetobacter baumannii [4]): > 32 µg/mL
- IC50 [5]: 10 nM
- MIC (Klebsiella pneumoniae [6]): 1 µg/mL
- MIC90 (Enterobacter [7]): 1 µg/mL
- hepatocyte CLint [8]: < 3 µL/min/1e6 cells
- MIC50 (Enterobacter [9]): 0.06 µg/mL
- remaining at 1 h [10]: 55%
- MIC (Acinetobacter baumannii [11]): 2 µg/mL
- MIC (Klebsiella pneumoniae [12]): 0.25 µg/mL
- fraction unbound [13]: > 0.93
- MIC90 (Acinetobacter baumannii [14]): 8 µg/mL
- AUC [15]: 412 ng·h/mL
- MTD [16]: ≥ 1000 mg/kg
- MIC (Klebsiella pneumoniae [17]): 128 µg/mL
- remaining at 1 h [18]: 79%
- Vd [19]: 2.2 L/kg
- MIC (Enterobacter [20]): < 0.03 µg/mL
- IC50 [21]: 2 nM
- IC50 [22]: 1 nM
- fraction unbound [23]: > 0.93
- MIC50 (Acinetobacter baumannii [24]): 4 µg/mL
- MIC (Acinetobacter baumannii [25]): > 128 µg/mL
- Activity (Klebsiella pneumoniae [26]): Dose-dependent effect
- Activity (Enterobacter [27]): 16 µg/mL
- fraction unbound [28]: > 0.93
- MIC (Klebsiella pneumoniae [29]): 1 µg/mL
- IC50 (Cytochrome P450 3A4): > 50000 nM
- MIC (Enterobacter cloacae): 128 µg/mL
- IC50 (Cytochrome P450 2C9): > 50000 nM
- IC50 [30]: 50 nM

— ChEMBL document CHEMBL4699665, “Discovery of ANT3310, a Novel Broad-Spectrum Serine β-Lactamase Inhibitor of the Diazabicyclooctane Class, Which Strongly Potentiates Meropenem Activity against Carbapenem-Resistant Enterobacterales and Acinetobacter baumannii” (J Med Chem, 2020)
